# Measurements as given in article PMC7126937 (Bioorganic & Medicinal Chemistry, 2014).
# “And” between values parts separate entries of the source, which are not always exact repeats. Equal entries are not always repeated.
# Tested on: influenza virus A/California/7/09 (H1N1)pdm09
# Assay type: cell-based, influenza virus A/California/07/09 (H1N1)pdm09
row,Structure (SMILES),ED50 (50% effective concentration; the concentration leading to 50% inhibition of virus replication)
1,"NC12CC3CC(CC(C3)C1)C2 [Amantadine, 1-aminoadamantane, reference compound]",64.2 ± 4.7 µM
2,"CC1(C)C2CC[C@@]1(C)C(=O)C2 [Compound 1, (1R)-(+)-camphor, reference compound]",1644.7 ± 144.4 µM
3,"CC1(C)[C@@H]2CC[C@@]1(C)/C(=N/CCC/N=C1\C[C@H]3CC[C@]1(C)C3(C)C)C2 [Compound 2a, N^1E,N^3E-N^1,N^3-bis((1R,2R,4R)-1,7,7-trimethylbicyclo[2.2.1]heptan-2-ylidene)propane-1,3-diamine]",9.3 ± 0.8 µM
4,"CC1(C)[C@@H]2CC[C@@]1(C)/C(=N/CCCCCC/N=C1\C[C@H]3CC[C@]1(C)C3(C)C)C2 [Compound 2b, N^1E,N^6E-N^1,N^6-bis((1R,2R,4R)-1,7,7-trimethylbicyclo[2.2.1]heptan-2-ylidene)hexane-1,6-diamine]",15.1 ± 1.1 µM
5,"CC1(C)[C@@H]2CC[C@@]1(C)/C(=N/CCCCCCC/N=C1\C[C@H]3CC[C@]1(C)C3(C)C)C2 [Compound 2c, N^1E,N^7E-N^1,N^7-bis((1R,2R,4R)-1,7,7-trimethylbicyclo[2.2.1]heptan-2-ylidene)heptane-1,7-diamine]",22.8 ± 2.3 µM
6,"CC1(C)[C@@H]2CC[C@@]1(C)/C(=N/CCCCCCCC/N=C1\C[C@H]3CC[C@]1(C)C3(C)C)C2 [Compound 2d, N^1E,N^8E-N^1,N^8-bis((1R,2R,4R)-1,7,7-trimethylbicyclo[2.2.1]heptan-2-ylidene)octane-1,8-diamine]",24.2 ± 2.1 µM
7,"CC1(C)[C@@H]2CC[C@@]1(C)/C(=N/CCCCCCCCCCCC/N=C1\C[C@H]3CC[C@]1(C)C3(C)C)C2 [Compound 2e, N^1E,N^12E-N^1,N^12-bis((1R,2R,4R)-1,7,7-trimethylbicyclo[2.2.1]heptan-2-ylidene)dodecane-1,12-diamine]",45.0 ± 3.9 µM
8,"CC1(C)[C@@H]2CC[C@@]1(C)/C(=N/c1ccc(Cc3ccc(/N=C4\C[C@H]5CC[C@]4(C)C5(C)C)cc3)cc1)C2 [Compound 2f, (E)-N-((1R,2R,4R)-1,7,7-trimethylbicyclo[2.2.1]heptan-2-ylidene)-4-(4-((E)-((1R,2R,4R)-1,7,7-trimethylbicyclo[2.2.1]heptan-2-ylidene)amino)benzyl)aniline]",351.4 ± 32.3 µM
9,"CC1(C)[C@@H]2CC[C@@]1(C)/C(=N/c1ccc(Oc3ccc(/N=C4\C[C@H]5CC[C@]4(C)C5(C)C)cc3)cc1)C2 [Compound 2g, (E)-N-((1R,2R,4R)-1,7,7-trimethylbicyclo[2.2.1]heptan-2-ylidene)-4-(4-((E)-((1R,2R,4R)-1,7,7-trimethylbicyclo[2.2.1]heptan-2-ylidene)amino)phenoxy)aniline]",373.4 ± 35.1 µM
10,"CC1(C)[C@@H]2CC[C@@]1(C)[C@H](NCCCCCCN[C@@H]1C[C@H]3CC[C@]1(C)C3(C)C)C2 [Compound 3b, N^1,N^6-bis((1R,2R,4R)-1,7,7-trimethylbicyclo[2.2.1]heptan-2-yl)hexane-1,6-diamine]",0.77 µM and 0.77 ± 0.1 µM
11,"CC1(C)[C@@H]2CC[C@@]1(C)[C@H](NCCCCCCCN[C@@H]1C[C@H]3CC[C@]1(C)C3(C)C)C2 [Compound 3c, N^1,N^7-bis((1R,2R,4R)-1,7,7-trimethylbicyclo[2.2.1]heptan-2-yl)heptane-1,7-diamine]",3.2 µM and 3.2 ± 0.2 µM
12,"CC1(C)[C@@H]2CC[C@@]1(C)[C@H](NCCCCCCCCCCCCN[C@@H]1C[C@H]3CC[C@]1(C)C3(C)C)C2 [Compound 3e, N^1,N^12-bis((1R,2R,4R)-1,7,7-trimethylbicyclo[2.2.1]heptan-2-yl)dodecane-1,12-diamine]",4.4 ± 0.3 µM
13,"CC1(C)[C@@H]2CC[C@@]1(C)[C@H](Nc1ccc(Cc3ccc(N[C@@H]4C[C@H]5CC[C@]4(C)C5(C)C)cc3)cc1)C2 [Compound 3f, (1R,2R,4R)-1,7,7-trimethyl-N-(4-(4-((1R,2R,4R)-1,7,7-trimethylbicyclo[2.2.1]heptan-2-ylamino)benzyl)phenyl)bicyclo[2.2.1]heptan-2-amine]",153.2 ± 11.9 µM
14,"CC1(C)[C@@H]2CC[C@@]1(C)[C@H](Nc1ccc(Oc3ccc(N[C@@H]4C[C@H]5CC[C@]4(C)C5(C)C)cc3)cc1)C2 [Compound 3g, (1R,2R,4R)-1,7,7-trimethyl-N-(4-(4-((1R,2R,4R)-1,7,7-trimethylbicyclo[2.2.1]heptan-2-ylamino)phenoxy)phenyl)bicyclo[2.2.1]heptan-2-amine]",207.6 ± 19.5 µM
15,"CN(CCCCCCN(C)[C@@H]1C[C@H]2CC[C@]1(C)C2(C)C)[C@@H]1C[C@H]2CC[C@]1(C)C2(C)C [Compound 4b, N^1,N^6-dimethyl-N^1,N^6-bis((1R,2R,4R)-1,7,7-trimethylbicyclo[2.2.1]heptan-2-yl) hexane-1,6-diamine]",110.1 ± 10.4 µM
16,"CN(CCCCCCCN(C)[C@@H]1C[C@H]2CC[C@]1(C)C2(C)C)[C@@H]1C[C@H]2CC[C@]1(C)C2(C)C [Compound 4c, N^1,N^7-dimethyl-N^1,N^7-bis((1R,2R,4R)-1,7,7-trimethylbicyclo[2.2.1]heptan-2-yl)heptane-1,7-diamine]",40.4 ± 3.8 µM
17,"CC1(C)[C@@H]2CC[C@@]1(C)/C(=N/c1ccc(Cc3ccc(N)cc3)cc1)C2 [Compound 5f, (E)-4-(4-aminobenzyl)-N-((1R,2R,4R)-1,7,7-trimethylbicyclo[2.2.1]heptan-2-ylidene)aniline]",15.0 ± 1.2 µM
18,"CC1(C)[C@@H]2CC[C@@]1(C)/C(=N/c1ccc(Oc3ccc(N)cc3)cc1)C2 [Compound 5g, (E)-4-(4-aminophenoxy)-N-((1R,2R,4R)-1,7,7-trimethylbicyclo[2.2.1]heptan-2-ylidene)aniline]",4.2 ± 0.0 µM
19,"CC(N)C12CC3CC(CC(C3)C1)C2.Cl (stereo not drawn) [Rimantadine, α-methyl-1-adamantylamine hydrochloride, reference compound]",67.0 ± 4.9 µM
